# Experimental data reported in patent US9278930B2, “Methods for increasing the stabilization of hypoxia inducible factor-α” (Aerpio Therapeutics Inc., priority 2009, dated 2016).
# Like-named read-outs stand apart in the source and are kept apart here.
# Assays:
# [1] = Solubility of salts in water (HPLC); format: physicochemical
# Method: The formulator can determine the solubility of the pharmaceutically acceptable salts of the disclosed inhibitors by any method desirable. The following is a non-limiting example of a procedure for evaluating the solubility of a salt of a disclosed inhibitor. A suspension of tert-butyl-{[1-(4-chlorobenzyl)-3-hydroxy-2-oxo-1,2-dihydropyridin-4-yl]methyl}-piperazine-1-carboxylate methanesulfonate (26.6 mg) in distilled deionized water (3.0 mL) is sonicated for 20 min with water bath temperature under 25° C. The suspension is filtered to remove any insoluble salt. The clear filtrate solution (200 μL) is diluted with distilled deionized water (800 μL) and subjected to HPLC analysis. The following are results for the pharmaceutically acceptable salts outlined in Table VII above.
# [2] = system: phosphoglycerate kinase (PGK) expression; assay: PGK expression in murine embryonic fibroblasts; format: cell-based; details: wild type murine embryonic fibroblasts; 1 μM, 10 μM (FIG. 12)
# Method: FIG. 11 depicts the up regulation of phosphoglycerate kinase (PGK) expression in wild type murine embryonic fibroblasts as a result of treatment with compound a compound disclosed in Table VIII at dosages of 1 μM (E), 10 μM (F), and 50 μM (G) vs. wild type control (H) and the lack of up regulation of PGK expression in HIF-1 knock out cells as a result of treatment with a compound disclosed in Table VIII at dosages of 1 μM (A), 10 μM (B), and 50 μM (C) and HIF-1 knock out control (D). Both cell types were treated for 7 hours.
smiles,measurement,setting,value
"CC(C)(C)OC(=O)N1CCN(Cc2ccn(Cc3ccc(Cl)cc3)c(=O)c2O)CC1 [Compound A41, tert-butyl 4-{[1-(4-chlorobenzyl)-3-hydroxy-2-oxo-1,2-dihydropyridin-4-yl]methyl}piperazine-1-carboxylate]",Solubility,"[1]; distilled deionized water, sonicated 20 min, under 25° C., HPLC, listed as Free base",~1 µg/mL
"O=c1c(O)cccn1Cc1cccc(Cl)c1 [Compound F2, 1-(3-chlorobenzyl)-3-hydroxypyridin-2(1H)-one]",up regulation of phosphoglycerate kinase (PGK) expression,[2],up regulation
"CC(C)(C)OC(=O)N1CCN(Cc2ccn(Cc3ccc(Cl)cc3)c(=O)c2O)CC1 [hydrogensulfonate, tert-butyl-{[1-(4-chlorobenzyl)-3-hydroxy-2-oxo-1,2-dihydropyridin-4-yl]methyl}-piperazine-1-carboxylate]",Solubility,[1],13200 µg/mL
